Results: US20150004100A1, “HETEROCYCLIC COMPOUNDS AS IMAGING PROBES OF TAU PATHOLOGY” (GE HEALTHCARE LIMITED, priority 2011, published 2015)
“Also recorded” adds a separate entry of the source.

How the values were obtained:
[1] = system: Aβ+ plaques; test: Tissue binding assay (fluorescence), plaques in human AD tissue sections; parameters: key to Plaques (staining): −: No staining; +: weak staining; ++: moderate staining; +++: intense staining; conditions: for Plaques (staining): 100 μM, human AD tissue
Procedure: (§1) Human brain tissue samples from the entorhinal cortex of patients with Alzheimer's disease (AD) and healthy controls were obtained from Tissue Solutions (Tissue Solutions Ltd, Glasgow, UK). Tissue samples were collected after informed written consent, and specimens were dissected at the tissue bank and snap-frozen for cryopreservation at a time interval of between 3 and 18 h after death. The frozen tissue was embedded in TissueTek® (VWR) and sectioned using a Microm HM560 cryostat (Thermo Scientific). Serial 12 μm sections were mounted onto SuperFrost®+ glass slides (VWR) and stored a −70° C.
(§2) The binding of compounds to tau+NFTs and Aβ+ plaques in human AD tissue were evaluated based on fluorescence.
(§3) Briefly, tissue sections were defrosted and fixed in ice-cold 70% ethanol. All tissue sections were rinsed with PBS after fixation and between all subsequent incubation steps. To quench autofluorescence, tissue sections were incubated first with 0.25% KMnO4 (Sigma-Aldrich) in PBS for 12 min, and then with 0.1% […]/0.1% oxalic acid (both reagents from Sigma-Aldrich) in PBS for 1 min. The tissue sections were blocked with 2% BSA in PBS for 10 min, and then incubated with the test compounds at 100 μM concentration for 1 h at RT. […] Finally the tissue sections were rinsed in PBS, and mounted in SlowFade® mounting media (Invitrogen). Images of labelled tissue sections were captured using a Nikon digital camera connected to a Leica microscope and using the NIS Elements D software (Nikon). Images were further processed with the Photoshop® software (Adobe).

[2] = system: tau+ NFTs; test: Tissue binding assay (fluorescence), NFTs in human AD tissue sections; parameters: key to NFTs (staining): −: No staining; +: weak staining; ++: moderate staining; +++: intense staining; conditions: for NFTs (staining): 100 μM, human AD tissue
Procedure: as §1, §2, §3

[3] = system: rat liver microsomes; test: Liver microsome stability assay, rat; type: in vitro ADME; conditions: 1 μM, 37° C., parent compound remaining, criterion >50%
Procedure: (§4) The liver microsome stability assay provides an estimate of compound stability and rate of metabolism in vivo. The desirable criterion for this assay is >50% parent compound after 30 min.
(§5) A 1 μM compound solution was incubated with rat or human liver microsomes (20 mg/ml) at 37° C. and the amount of parent compound remaining following the incubation was determined after 5 and 30 min of incubation using LC-MS.

[4] = system: Aβ+ plaques; test: Tissue binding assay (fluorescence), plaques in human AD tissue sections; parameters: key to Plaques (staining): −: No staining; +: weak staining; ++: moderate staining; +++: intense staining; conditions: human AD tissue
[5] = system: human liver microsomes; test: Liver microsome stability assay, human; type: in vitro ADME; conditions: 1 μM, 37° C., parent compound remaining, criterion >50%
Procedure: as §4, §5

[6] = PAMPA (parallel artificial membrane permeability assay); type: in vitro ADME; conditions: 10 μM, 5 h at RT; criterion >−6
Procedure: The PAMPA assay is used to determine how well a compound crosses a cell membrane by measuring its passage through a phosphotidyl choline barrier. A permeability coefficient >−6 indicates high permeability across lipid membranes and is indicative of a compounds ability to cross the blood brain barrier.
A 10 μM solution was incubated on a PDVF membrane coated with a 2% phoshotidyl choline solution for 5 h at RT. Membrane penetration was measured using LC-MS.

[7] = Protein binding assay, human plasma (rapid equilibrium dialysis); type: in vitro ADME; conditions: % bound, criterion <99%
Procedure: (§6) The protein binding assays provide an estimate of free (unbound) fraction of the compound in the blood or brain in vivo. […] The desirable criterion for this assay is <99% of test compound bound.
(§7) Test compounds were first dissolved in DMSO to a concentration of 50 μM. This was followed by incubation in samples of human plasma and rat brain homogenates (final test concentration 1 μM). Binding of compounds to proteins was determined in the samples by rapid equilibrium dialysis after 5 and 30 min of incubation.

[8] = system: tau+ NFTs; test: Tissue binding assay (fluorescence), NFTs in human AD tissue sections; parameters: key to NFTs (staining): −: No staining; +: weak staining; ++: moderate staining; +++: intense staining; conditions: for NFTs (staining): Table 2, human AD tissue
[9] = Protein binding assay, rat brain homogenates (rapid equilibrium dialysis); type: in vitro ADME; conditions: rat brain homogenate, % bound, criterion <99%
Procedure: as §6, §7

[10] = In vivo cold bio-distribution in rat (brain uptake, LC-MS); conditions: for tissue uptake at 2 min / tissue uptake at 10 min / tissue uptake at 30 min / tissue uptake at 60 min: male, Wistar, brain, iv, 50 μg/rat; for tissue uptake at 10 min: 10 min p.i.; for tissue uptake at 30 min: 30 min p.i.; for tissue uptake at 60 min: 60 min p.i.; for Clearance ratio 2:30 min: rat brain, 2 min vs 30 min p.i.
Procedure: All animal studies were in compliance with local rules and regulations. Test compounds were administered by intravenous (i.v) injection through the tail vein of naïve male Wistar rats (50 μg test compound/rat). The animals were sacrificed by dislocation of the neck at 2, 10, 30, 60 min post-injection (p.i). The brain and plasma were collected from each animal. The concentration of test compound was measured in the plasma and brain homogenates using LS-MS, and calculated as % compound/g (% ID/g).

[11] = high test concentration, AD tissue

Compound | Liver stability Rat (% PCP) 5 min [3] | Liver stability Rat (% PCP) 30 min [3] | Liver stability Human (% PCP) 5 min [5] | Liver stability Human (% PCP) 30 min [5] | PAMPA Log Pe [6] | fraction unbound at 1 μM [7] | fraction unbound at 1 μM [9] | Plaques (staining) ([1]; Table 3) | NFTs (staining) ([2]; Table 3) | also measured
CC(C)NC(=O)c1nn(-c2ccc(OCCCF)cc2)c(=O)c2c(N)scc12 [Compound 61] |  |  |  |  |  |  |  |  |  | Plaques (staining) ([1]; Table 4): −; NFTs (staining) ([2]; Table 4): −
CC(C)(C)OC(=O)c1nn(-c2ccc(OCCF)cc2)c(=O)c2c(N)scc12 [Compound 104] |  |  |  |  |  |  |  |  |  | Plaques (staining) ([1]; Table 4): −; NFTs (staining) ([2]; Table 4): −
CC(C)NC(=O)c1nn(-c2ccc(F)cc2)c(=O)c2c(N)scc12 [Compound 14] | 92.8 % PCP | 64.0 % PCP | 92.1 % PCP | 61.3 % PCP | −4.89 | 0.0522 | 0.383 |  |  | Plaques (staining) ([4]; Table 2, 1 μM): −; Plaques (staining) ([4]; Table 2, 10 μM): −; Plaques (staining) ([1]; Table 2): +; NFTs (staining) ([8]; 1 μM): −; NFTs (staining) ([8]; 10 μM): −; NFTs (staining) ([2]; Table 2): +
COc1ccc(-n2nc(NCCF)c3csc(N)c3c2=O)cc1 [Compound 99] |  |  |  |  |  |  |  |  |  | tissue uptake at 2 min ([10]; rat, 2 min p.i.): > 0.2 %ID/g; tissue uptake at 10 min ([10]; rat): 0.092 %ID/g; tissue uptake at 30 min ([10]; rat): 0.013 %ID/g; tissue uptake at 60 min ([10]; rat): 0.001 %ID/g; Clearance ratio 2:30 min [10]: 23.8; Brain uptake and clearance (in words) ([10]; rat, from clearance ratio): rapid brain uptake followed by rapid clearance; Brain uptake % ID/g p.i ([10]; rat, i.v., 2 min p.i.): 0.31 % ID/g
COc1ccc(-n2nc(C(=O)N3CC[C@H](F)C3)c3csc(N)c3c2=O)cc1 [Compound 108] |  |  |  |  |  |  |  | − | − | 
CC(C)NC(=O)c1nn(-c2ccc(OCCF)cc2)c(=O)c2c(NC(=O)OC(C)(C)C)scc12 [Compound 64] |  |  |  |  |  |  |  | − | − | 
CC(C)NC(=O)c1nn(-c2ccc([N+](=O)[O-])cc2)c(=O)c2c(N)scc12 [Compound 105] | 81.29 % PCP | 58.8 % PCP | 91.5 % PCP | 73.2 % PCP | −5.10 | 0.02 | 0.112 |  |  | Plaques (staining) ([4]; Table 2, 10 μM): −; Plaques (staining) ([1]; Table 2): ++; Binding to plaques (in words) [1, 11]: binds to NFTs (C, D) and plaques (D); also recorded: bind to both NFTs and plaques; NFTs (staining) ([8]; 1 μM): −; NFTs (staining) ([8]; 10 μM): +; Binding preference for NFTs (in words) ([8]; lower test concentrations, AD tissue): binds preferentially to NFTs; also recorded: bind with a preference for NFTs; NFTs (staining) ([2]; Table 2): ++; Binding to NFTs (in words) [2, 11]: binds to NFTs (C, D) and plaques (D); also recorded: bind to both NFTs and plaques
CC(C)NC(=O)c1nn(-c2ccc(O)cc2)c(=O)c2c(N)scc12 [Compound 58] | 90.03 % PCP | 79.3 % PCP | 100.9 % PCP | 83.4 % PCP | −7.52 | 0.068 | 0.506 |  |  | 
COc1ccc(-n2nc(C(=O)NC(C)C)c3csc(N(C)C)c3c2=O)cc1 [Compound 82] |  |  |  |  |  |  |  |  |  | Plaques (staining) ([4]; Table 2, 1 μM): −; Plaques (staining) ([4]; Table 2, 10 μM): −; Plaques (staining) ([1]; Table 2): ++; NFTs (staining) ([2]; Table 2): +
COc1ccc(-n2nc(C(=O)N3CCC(CCF)CC3)c3csc(N)c3c2=O)cc1 [Compound 56] | 94.88 % PCP | 92.06 % PCP | 80.98 % PCP | 52.10 % PCP | −5.16 | 0.0372 | 0.448 | − | − | 
CC(C)NC(=O)c1nn(-c2ccc(O)cc2)c(=O)c2c(NC(=O)OC(C)(C)C)scc12 [Compound 63] |  |  |  |  |  |  |  |  |  | NFTs (staining) ([2]; Table 2): −
CC(C)NC(=O)c1nn(-c2ccc(OCC(O)CF)cc2)c(=O)c2c(N)scc12 (stereo not drawn) [Compound 59] |  |  |  |  |  |  |  |  |  | Plaques (staining) ([1]; Table 4): −; NFTs (staining) ([2]; Table 4): −
COc1ccc(-n2nc(C(=O)NCCF)c3csc(N)c3c2=O)cc1 [Compound 106] |  |  |  |  |  |  |  | − |  | tissue uptake at 2 min ([10]; rat, 2 min p.i.): 0.014 %ID/g; tissue uptake at 10 min ([10]; rat): 0.001 %ID/g; tissue uptake at 30 min ([10]; rat): 0.004 %ID/g; tissue uptake at 60 min ([10]; rat): 0.001 %ID/g; Clearance ratio 2:30 min [10]: 3.5; Brain uptake (in words) ([10]; rat, cold bio-distribution): low brain uptake
COc1ccc(-n2nc(C(=O)N3CCN(c4ccc(F)nc4)CC3)c3csc(N)c3c2=O)cc1 [Compound 67] |  |  |  |  |  |  |  | − | − | 
COc1ccc(-n2nc(C(=O)N3CCC(CF)CC3)c3csc(N)c3c2=O)cc1.Cl [Compound 81] | 60.12 % PCP | 32.54 % PCP | 91.63 % PCP | 73.10 % PCP | −5.12 | 0.0498 | 0.589 | − |  | 
COc1ccc(-n2nc(C(=O)N3CCN(c4cccc(F)n4)CC3)c3csc(NC(=O)OC(C)(C)C)c3c2=O)cc1 [Compound 91] |  |  |  |  |  |  |  |  |  | Plaques (staining) ([1]; Table 2): −; NFTs (staining) ([2]; Table 2): −
CNc1scc2c(C(=O)NC(C)C)nn(-c3ccc(OC)cc3)c(=O)c12 [Compound 87] |  |  |  |  |  |  |  | − | − | 
COc1ccc(-n2nc(C(=O)N3CCN(c4cccc(F)n4)CC3)c3csc(N)c3c2=O)cc1 [Compound 90] | 72.67 % PCP | 53.0 % PCP | 44.62 % PCP | 2.57 % PCP | −5.51 | 0.0084 | 0.112 |  |  | Plaques (staining) ([1]; Table 2): −
COc1ccc(-n2nc(C(=O)N3CC[C@@H](F)C3)c3csc(N)c3c2=O)cc1 [Compound 107] |  |  |  |  |  |  |  | + | − | Plaques (staining) ([4]; Table 3, 1 μM): −; Plaques (staining) ([4]; Table 3, 10 μM): −
